In the supplement of paper PMC10307832:

Experiments:
Assay in all cases: relative viability (nuclei count vs DMSO), 5 days (fraction); higher = more cells survive
Midostaurin + Pictilisib = compound: CO[C@@H]1[C@H](N(C)C(=O)c2ccccc2)C[C@H]2O[C@]1(C)n1c3ccccc3c3c4c(c5c6ccccc6n2c5c31)C(=O)NC4 [Midostaurin] + CS(=O)(=O)N1CCN(Cc2cc3nc(-c4cccc5[nH]ncc45)nc(N4CCOCC4)c3s2)CC1 [Pictilisib] (partner 1 µM)
Method in brief: (§1)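 Medians of duplicate plates are given as relative viability. That measure is the nuclei count in treated wells divided by the count in vehicle wells. Counts were taken on 4× images of lung cancer cell lines in 1536-well plates, 5 days after pin-tool dosing the day after seeding with one drug alone or a fixed anchor-drug dose plus five library-drug doses (not always all listed) in √10 steps.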

Midostaurin + AZD7762 = compound: CO[C@@H]1[C@H](N(C)C(=O)c2ccccc2)C[C@H]2O[C@]1(C)n1c3ccccc3c3c4c(c5c6ccccc6n2c5c31)C(=O)NC4 [Midostaurin] + NC(=O)Nc1cc(-c2cccc(F)c2)sc1C(=O)N[C@H]1CCCNC1 [AZD7762] (partner 0.2 µM)
Method in brief: as §1

Midostaurin + Lapatinib = compound: CO[C@@H]1[C@H](N(C)C(=O)c2ccccc2)C[C@H]2O[C@]1(C)n1c3ccccc3c3c4c(c5c6ccccc6n2c5c31)C(=O)NC4 [Midostaurin] + CS(=O)(=O)CCNCc1ccc(-c2ccc3ncnc(Nc4ccc(OCc5cccc(F)c5)c(Cl)c4)c3c2)o1 [Lapatinib] (partner 2 µM)
Method in brief: as §1

[1] = compound: COc1cc(-c2nn([C@H]3CC[C@H](N4CCN(C(C)=O)CC4)CC3)c3ncnc(N)c23)ccc1NC(=O)c1cc2ccccc2n1C + N=C(N)NC(=N)NCCc1ccccc1 [Phenformin] (partner 250 µM)
Method in brief: as §1

Midostaurin + Trametinib = compound: CO[C@@H]1[C@H](N(C)C(=O)c2ccccc2)C[C@H]2O[C@]1(C)n1c3ccccc3c3c4c(c5c6ccccc6n2c5c31)C(=O)NC4 [Midostaurin] + CC(=O)Nc1cccc(-n2c(=O)n(C3CC3)c(=O)c3c(Nc4ccc(I)cc4F)n(C)c(=O)c(C)c32)c1 [Trametinib] (partner 0.02 µM)
Method in brief: as §1

Cell Line	relative viability (Midostaurin + Pictilisib; first compound 0.01 µM)	relative viability (Midostaurin + Pictilisib; first compound 0.03162 µM)	relative viability (Midostaurin + Pictilisib; first compound 0.1 µM)	relative viability (Midostaurin + Pictilisib; first compound 0.3162 µM)	relative viability (Midostaurin + AZD7762; first compound 0.01 µM)	relative viability (Midostaurin + AZD7762; first compound 0.03162 µM)	relative viability (Midostaurin + AZD7762; first compound 0.1 µM)	relative viability (Midostaurin + AZD7762; first compound 0.3162 µM)	relative viability (Midostaurin + Lapatinib; first compound 0.01 µM)	relative viability (Midostaurin + Lapatinib; first compound 0.03162 µM)	relative viability (Midostaurin + Lapatinib; first compound 0.1 µM)	relative viability (Midostaurin + Lapatinib; first compound 0.3162 µM)	relative viability ([1]; first compound 0.0128 µM)	relative viability ([1]; first compound 0.04048 µM)	relative viability ([1]; first compound 0.128 µM)	relative viability ([1]; first compound 1.28 µM)	relative viability (Midostaurin + Trametinib; first compound 0.01 µM)	relative viability (Midostaurin + Trametinib; first compound 0.03162 µM)	relative viability (Midostaurin + Trametinib; first compound 0.1 µM)	relative viability (Midostaurin + Trametinib; first compound 0.3162 µM)
NCI-H358	0.437	0.222	0.308	0.432	0.475	0.513	0.571	0.391	0.582	0.391	0.584	0.499	0.329	0.283	0.254	0.187	0.146	0.158	0.133	0.14
PC-3 [JPC-3]	0.787	0.623	0.785	0.789	0.737	0.892	0.759	0.869	0.432	0.439	0.488	0.43	0.488	0.474	0.461	0.512	0.684	0.722	0.699	0.814
HOP-62	0.804	0.641	0.735	1.11	0.527	0.568	0.727	0.553	1.02	0.994	1.14	1.06	0.712	0.657	0.656	0.709	0.473	0.42	0.362	0.362
HARA	0.469	0.416	0.295	0.333	0.301	0.475	0.394	0.299	0.641	0.665	0.522	1.01	0.426	0.533	0.41	0.332	0.994	0.663	0.887	0.393
NCI-H838	0.565	0.48	0.302	0.276	0.843	0.892	0.848	0.865	0.955	0.92	0.897	0.452	0.694	0.53	0.509	0.388	0.518	0.562	0.412	0.311
NCI-H1755	0.397	0.345	0.407	0.332	0.492	0.422	0.447	0.402	1.03	0.976	0.903	0.917	0.647	0.547	0.592	0.614	0.75	0.811	0.798	0.72
HCC-78	0.216	0.216	0.229	0.19	0.682	1.09	0.644	0.483	0.805	0.697	0.721	0.316	0.734	0.789	0.601	0.37	0.757	0.612	0.739	0.463
